Legend:
Dnmt3a^−/− HSCs = experiment: ADP-heptose treatment of low-dose irradiated chimeric mice: donor HSC number in BM, EdU proliferation, secondary transplant; assay type: in vivo, mouse
Text: To model pre-leukemic clonal hematopoiesis, chimeric mice were generated as aas follows. Briefly, mixture of 1×10^6 whole bone marrow cells (WBM) were obtained from Poly (I:C) treated wild-type (Dnmt3a^+/+; MxCre^+, called Dnmt3a^WT) or mutant mice (Dnmt3a^f/f; MxCre^+, called Dnmt3a^KO) or double mutant mice (Dnmt3a^f/f; MxCre^+; Alpk1^KO, called Dnmt3a^KO; Alpk1^KO) (CD45.2^+), and transplanted into low-dose (2.5 Gy) irradiated recipient mice (CD45.1^+; 6-10 weeks of age). 8 weeks post-transplant, chimeric mice were treated with either water (H2O) or DSS (2.5%) for 1 week, and allowed to recover for 1 more week on water after which flow cytometry was performed on BM. In separate experiment, chimeric mice were pre-treated with broad spectrum antibiotics (ABX) for 4 weeks, and then subjected to DSS for 1 week after which flow cytometry performed on BM. In a separate set of experiment, chimeric mice were treated with either H2O or ADP-heptose (0.5 mg/kg) for 2 weeks, and flow cytometry performed after 2 more weeks on BM. In all the experiments, secondary transplantation was performed by purifying donor HSCs (CD45.2^+Lin^−Sca-1^+c-Kit^+Flk2^−CD150^+CD48^−) and transplanting 100 HSCs with 200,000 helper WBM cells (CD45.1+) into lethally irradiated (8 Gy) recipient mice (CD45.1^+), and donor chimerism in PB examined by flow cytometry.

Dnmt3a^KO cells = experiment: RNA-sequencing of HSPCs treated in vitro with ADP-heptose or H2O for 90 minutes; assay type: cell-based, mouse

`Nc1ncnc2c1ncn2[C@@H]1O[C@H](COP(=O)(O)OP(=O)(O)O[C@@H]2O[C@H]([C@H](O)CO)[C@@H](O)[C@H](O)[C@@H]2O)[C@@H](O)[C@H]1O` [ADP-heptose, ADP-D-glycero-β-D-manno-heptose] was tested, and the “expansion of Dnmt3a^−/− HSCs in BM” value (Dnmt3a^−/− HSCs; ADP-heptose 0.5 mg/kg for 2 weeks) was “rapid and significant expansion”, the “proliferation of HSCs in vivo (EdU)” value (Dnmt3a^−/− HSCs; Dnmt3a^−/− HSCs, within 2 weeks) was “significant proliferation” and the “self-renewal in secondary recipient mice” value (Dnmt3a^−/− HSCs; secondary transplant of donor HSCs) was “sustained self-renewal”. The “gene expression changes (global transcriptomic analysis)” value (Dnmt3a^KO cells; Dnmt3a^−/− compared to WT LSKs) was “significant gene expression changes”, the logFC (Dnmt3a^KO cells; gene 2610037D02Rik, Dnmt3a^KO cells) was −0.596 and the logFC (Dnmt3a^KO cells; gene 5031425F14Rik, Dnmt3a^KO cells) was 0.6597. It also gave a logFC (Dnmt3a^KO cells; gene 6330549D23Rik, Dnmt3a^KO cells) of 0.6997, a logFC (Dnmt3a^KO cells; gene A130077B15Rik, Dnmt3a^KO cells) of −0.592 and a logFC (Dnmt3a^KO cells; gene AF251705, Dnmt3a^KO cells) of 0.6212. It also gave a logFC (Dnmt3a^KO cells; gene Adm, Dnmt3a^KO cells) of 1.598, a logFC (Dnmt3a^KO cells; gene Afp, Dnmt3a^KO cells) of 0.7049 and a logFC (Dnmt3a^KO cells; gene Ahrr, Dnmt3a^KO cells) of 1.585. The logFC (Dnmt3a^KO cells; gene Angptl2, Dnmt3a^KO cells) was 0.6418, the logFC (Dnmt3a^KO cells; gene Avil, Dnmt3a^KO cells) was 1.557 and the logFC (Dnmt3a^KO cells; gene Baiap2, Dnmt3a^KO cells) was 0.7135. For the same compound, the logFC (Dnmt3a^KO cells; gene Baiap2l1, Dnmt3a^KO cells) was 0.6616, the logFC (Dnmt3a^KO cells; gene C1qb, Dnmt3a^KO cells) was 0.6904 and the logFC (Dnmt3a^KO cells; gene C1qc, Dnmt3a^KO cells) was 0.6327. It also gave a logFC (Dnmt3a^KO cells; gene Carns1, Dnmt3a^KO cells) of 0.6216, a logFC (Dnmt3a^KO cells; gene Ccl2, Dnmt3a^KO cells) of 0.6432 and a logFC (Dnmt3a^KO cells; gene Ccl24, Dnmt3a^KO cells) of 1.576. For the same compound, the logFC (Dnmt3a^KO cells; gene Cd28, Dnmt3a^KO cells) was 0.6845, the logFC (Dnmt3a^KO cells; gene Cd40, Dnmt3a^KO cells) was 0.6974 and the logFC (Dnmt3a^KO cells; gene Cd74, Dnmt3a^KO cells) was 0.6203. For the same compound, the logFC (Dnmt3a^KO cells; gene Ces1d, Dnmt3a^KO cells) was 0.5862, the logFC (Dnmt3a^KO cells; gene Chst10, Dnmt3a^KO cells) was 0.609 and the logFC (Dnmt3a^KO cells; gene Ciita, Dnmt3a^KO cells) was 0.6462. The logFC (Dnmt3a^KO cells; gene Clec10a, Dnmt3a^KO cells) was 0.615, the logFC (Dnmt3a^KO cells; gene Col1a1, Dnmt3a^KO cells) was 0.5944 and the logFC (Dnmt3a^KO cells; gene Col15a1, Dnmt3a^KO cells) was 0.6093. For the same compound, the logFC (Dnmt3a^KO cells; gene Cxcl3, Dnmt3a^KO cells) was 0.6695, the logFC (Dnmt3a^KO cells; gene Cxcr2, Dnmt3a^KO cells) was −0.587 and the logFC (Dnmt3a^KO cells; gene Dcstamp, Dnmt3a^KO cells) was 0.7137. It also gave a logFC (Dnmt3a^KO cells; gene Dnah6, Dnmt3a^KO cells) of 0.6061, a logFC (Dnmt3a^KO cells; gene Dqx1, Dnmt3a^KO cells) of 0.6377 and a logFC (Dnmt3a^KO cells; gene Emp1, Dnmt3a^KO cells) of 0.6342. The logFC (Dnmt3a^KO cells; gene Etohi1, Dnmt3a^KO cells) was −0.586, the logFC (Dnmt3a^KO cells; gene Fam167a, Dnmt3a^KO cells) was 0.6175 and the logFC (Dnmt3a^KO cells; gene Fblim1, Dnmt3a^KO cells) was 0.5971. It also gave a logFC (Dnmt3a^KO cells; gene Flrt2, Dnmt3a^KO cells) of 0.7192, a logFC (Dnmt3a^KO cells; gene Gm8369, Dnmt3a^KO cells) of −0.599 and a logFC (Dnmt3a^KO cells; gene Gm17455, Dnmt3a^KO cells) of 0.7125. For the same compound, the logFC (Dnmt3a^KO cells; gene Grap, Dnmt3a^KO cells) was 0.6793, the logFC (Dnmt3a^KO cells; gene Grm1, Dnmt3a^KO cells) was 1.762 and the logFC (Dnmt3a^KO cells; gene Gzmb, Dnmt3a^KO cells) was 0.674. For the same compound, the logFC (Dnmt3a^KO cells; gene Gzmc, Dnmt3a^KO cells) was 1.782, the logFC (Dnmt3a^KO cells; gene H2-DMb2, Dnmt3a^KO cells) was 0.6529 and the logFC (Dnmt3a^KO cells; gene H2-Eb1, Dnmt3a^KO cells) was 0.5954. For the same compound, the logFC (Dnmt3a^KO cells; gene H2-Eb2, Dnmt3a^KO cells) was 0.6221, the logFC (Dnmt3a^KO cells; gene H2-K2, Dnmt3a^KO cells) was 0.6688 and the logFC (Dnmt3a^KO cells; gene Hic1, Dnmt3a^KO cells) was 1.783. The logFC (Dnmt3a^KO cells; gene Hist1h2ag, Dnmt3a^KO cells) was 0.6273, the logFC (Dnmt3a^KO cells; gene Hist1h2bc, Dnmt3a^KO cells) was 0.6716 and the logFC (Dnmt3a^KO cells; gene Hist1h2be, Dnmt3a^KO cells) was 0.6244. It also gave a logFC (Dnmt3a^KO cells; gene Hist1h2bf, Dnmt3a^KO cells) of 0.6891, a logFC (Dnmt3a^KO cells; gene Hist1h2bj, Dnmt3a^KO cells) of 0.665 and a logFC (Dnmt3a^KO cells; gene Hist1h4d, Dnmt3a^KO cells) of 0.592. The logFC (Dnmt3a^KO cells; gene Hyal1, Dnmt3a^KO cells) was 0.599, the logFC (Dnmt3a^KO cells; gene Igf2bp2, Dnmt3a^KO cells) was 0.6643 and the logFC (Dnmt3a^KO cells; gene Il12rb1, Dnmt3a^KO cells) was 0.6261. The logFC (Dnmt3a^KO cells; gene Iqcg, Dnmt3a^KO cells) was 0.6826, the logFC (Dnmt3a^KO cells; gene Itgb7, Dnmt3a^KO cells) was 0.6248 and the logFC (Dnmt3a^KO cells; gene Lars2, Dnmt3a^KO cells) was 0.6326. For the same compound, the logFC (Dnmt3a^KO cells; gene Lif, Dnmt3a^KO cells) was 0.6432, the logFC (Dnmt3a^KO cells; gene Loxl3, Dnmt3a^KO cells) was 0.5934 and the logFC (Dnmt3a^KO cells; gene Lrrc51, Dnmt3a^KO cells) was 0.669. The logFC (Dnmt3a^KO cells; gene Map3k15, Dnmt3a^KO cells) was 0.7124, the logFC (Dnmt3a^KO cells; gene Matk, Dnmt3a^KO cells) was 0.5934 and the logFC (Dnmt3a^KO cells; gene Mir6236, Dnmt3a^KO cells) was 0.6256. It also gave a logFC (Dnmt3a^KO cells; gene Mmp12, Dnmt3a^KO cells) of 0.7097, a logFC (Dnmt3a^KO cells; gene Mrc1, Dnmt3a^KO cells) of 0.7023 and a logFC (Dnmt3a^KO cells; gene N4bp3, Dnmt3a^KO cells) of 0.6853. For the same compound, the logFC (Dnmt3a^KO cells; gene Nqo1, Dnmt3a^KO cells) was 0.7094, the logFC (Dnmt3a^KO cells; gene Orm1, Dnmt3a^KO cells) was −0.598 and the logFC (Dnmt3a^KO cells; gene P2rx3, Dnmt3a^KO cells) was 0.7048. It also gave a logFC (Dnmt3a^KO cells; gene Pcbp3, Dnmt3a^KO cells) of 0.6997, a logFC (Dnmt3a^KO cells; gene Pf4, Dnmt3a^KO cells) of 0.7165 and a logFC (Dnmt3a^KO cells; gene Phf1, Dnmt3a^KO cells) of 0.595. The logFC (Dnmt3a^KO cells; gene Plekhn1, Dnmt3a^KO cells) was 0.6207, the logFC (Dnmt3a^KO cells; gene Ppp1r3d, Dnmt3a^KO cells) was −0.595 and the logFC (Dnmt3a^KO cells; gene Procr, Dnmt3a^KO cells) was −0.595. For the same compound, the logFC (Dnmt3a^KO cells; gene Ptgs1, Dnmt3a^KO cells) was 0.6215, the logFC (Dnmt3a^KO cells; gene Ptprn, Dnmt3a^KO cells) was 0.5867 and the logFC (Dnmt3a^KO cells; gene Pvrl1, Dnmt3a^KO cells) was 0.663. For the same compound, the logFC (Dnmt3a^KO cells; gene Rap1gap, Dnmt3a^KO cells) was 0.6406, the logFC (Dnmt3a^KO cells; gene Retnlg, Dnmt3a^KO cells) was 0.6829 and the logFC (Dnmt3a^KO cells; gene Rn45s, Dnmt3a^KO cells) was 0.6912. For the same compound, the logFC (Dnmt3a^KO cells; gene Rptoros, Dnmt3a^KO cells) was 0.6692, the logFC (Dnmt3a^KO cells; gene Scn3a, Dnmt3a^KO cells) was 1.51 and the logFC (Dnmt3a^KO cells; gene Serpinb2, Dnmt3a^KO cells) was 0.6945. For the same compound, the logFC (Dnmt3a^KO cells; gene Slc36a2, Dnmt3a^KO cells) was 0.7191, the logFC (Dnmt3a^KO cells; gene Spag1, Dnmt3a^KO cells) was −0.587 and the logFC (Dnmt3a^KO cells; gene Spry1, Dnmt3a^KO cells) was −0.595. It also gave a logFC (Dnmt3a^KO cells; gene Srp54b, Dnmt3a^KO cells) of 1.636, a logFC (Dnmt3a^KO cells; gene Stfa2l1, Dnmt3a^KO cells) of −0.599 and a logFC (Dnmt3a^KO cells; gene Tdrkh, Dnmt3a^KO cells) of 0.5973. The logFC (Dnmt3a^KO cells; gene Tesc, Dnmt3a^KO cells) was 0.607, the logFC (Dnmt3a^KO cells; gene Tjp3, Dnmt3a^KO cells) was 0.5969 and the logFC (Dnmt3a^KO cells; gene Tlr5, Dnmt3a^KO cells) was 0.5879. The logFC (Dnmt3a^KO cells; gene Tpmt, Dnmt3a^KO cells) was −0.598, the logFC (Dnmt3a^KO cells; gene Trem2, Dnmt3a^KO cells) was 0.6257 and the logFC (Dnmt3a^KO cells; gene Trib3, Dnmt3a^KO cells) was 0.677. The logFC (Dnmt3a^KO cells; gene Zfp184, Dnmt3a^KO cells) was −0.594 and the logFC (Dnmt3a^KO cells; gene Zfp784, Dnmt3a^KO cells) was 0.6147.
